The text below walks through data of US5756145A, “Durable, Resilient and effective antimicrobial coating for medical devices and method of coating therefor” (priority 1995, dated 1998).

Where a name gives a salt, the structure may show the parent alone.

One series deals with Staph. epidermidis. The experiment in a line: zones of inhibition on agar plates, Staph. epidermidis (Examples 1, 2, 5, 7). The conditions noted are these: S. epidermidis, Init., triple layer, Table 7.
Series [1] relates to Candida albicans. The experiment in a line: zones of inhibition on agar plates, Candida albicans (Examples 1, 2, 5, 7). The conditions noted are these: Init., triple layer, Table 7.
Protocol: (§1) Selected single layer and triple layer coated cylinders were then placed on agar plates that had been freshly overlaid with one of the microorganisms shown below in Table 1.
(§2) The coated cylinders were then removed from the serum and placed on agar plates that had been freshly overlaid with one of the microorganisms shown below in Table 2.
(§3) The devices and coating solution were preheated to 45° C. After coating the devices were allowed to dry for about four hours. […] The devices were then allowed to dry for an additional two hours. The resilient coated layer was applied over the durable coated layer by dipping the devices for approximately 5-10 seconds in a collodion solution. The devices were then allowed to dry for an additional two hours. Selected coated devices were then incubated in human serum at 37° C. for one and three weeks.
In a further series the test system is Pseud. aeruginosa. The experiment in a line: zones of inhibition on agar plates, Pseud. aeruginosa (Examples 1, 2, 5, 7). The conditions noted are these: P. aerug, Init., triple layer, Table 7.
Series [2] concerns bacterial and fungal organisms. The conditions noted are these: cited from earlier work; for bacteriostatic/bactericidal nature / spectrum of antimicrobial activity: general statement; for effect of organic matter on effectiveness: organic matter such as blood.
The subject of a further series is protein synthesis. The conditions noted are these: general statement; cited from earlier work.
For series [3] the following is noted: cited from earlier work; for solubility in organic solvents: organic solvents/solutions.
A further series has as its system Pseudomonas aeruginosa. The conditions noted are these: cited from earlier work.
For series [4] the following is noted: light; cited from earlier work.
The subject of series [5] is Candida albicans. The conditions noted are these: cited from earlier work.
Another series relates to Escherichia coli. The conditions noted are these: cited from earlier work.
For the next series, the system named is Staphylococcus aureus. The conditions noted are these: cited from earlier work.
Series [6] deals with bacterial DNA-dependent RNA polymerase. The conditions noted are these: general statement; cited from earlier work.

Protocol for Pseud. aeruginosa: as §1, §2, §3
Protocol for Staph. epidermidis: as §1, §2, §3

The compound `[H]/N=C(\N/C(=N/[H])NCCCCCCNC(=N)NC(=N)Nc1ccc(Cl)cc1)Nc1ccc(Cl)cc1` [Chlorhexidine] displayed a Zones of inhibition with Staph. epidermidis of 22 m.m. The compound further showed a Zones of inhibition in the series with Candida albicans [1] of 26 m.m. The Zones of inhibition with Pseud. aeruginosa is 20 m.m. In addition, in series [2], the bacteriostatic/bactericidal nature result is listed as “very rapid bactericidal activity”; the “spectrum of antimicrobial activity” value was “broad range of microorganisms, including gram-positive bacteria (such as staphylococci, Enterococcus species), gram-negative bacteria (such as Escherichia coli and Pseudomonas aeruginosa) and Candida species”; the “effect of organic matter on effectiveness” value is listed as “not affected by the presence of organic matter”.
For the compound `Cc1cc(O)cc(C)c1Cl` [Chloroxylenol, 4-chloro, 3,5-dimethyl phenol], the Zones of inhibition in the series with Staph. epidermidis turned out to be 32 m.m; in the series on Candida albicans [1], 28 m.m; in the series on Pseud. aeruginosa it was 13 m.m. Moreover, in series [2], the “spectrum of antimicrobial activity” value was “good antimicrobial activity against gram-positive bacteria and fungi, and fair activity against gram-negative bacteria”. Further, the “effect of organic matter on effectiveness” value in series [2] was “minimally affected by organic matter”.
`CC[C@H]1OC(=O)[C@H](C)[C@@H](O[C@H]2C[C@@](C)(OC)[C@@H](O)[C@H](C)O2)[C@H](C)[C@@H](O[C@@H]2O[C@H](C)C[C@H](N(C)C)[C@H]2O)[C@](C)(O)C[C@@H](C)C(=O)[C@H](C)[C@@H](O)[C@]1(C)O` [Erythromycin]: in the series with protein synthesis, the “inhibition of protein synthesis” value is “inhibition of protein synthesis without affecting nucleic acid synthesis”. In addition, the “spectrum of antimicrobial activity” value in series [2] was “active against a variety of gram-positive and gram-negative bacteria”.
For `Oc1c(Cl)cc(Cl)c(Cl)c1Cc1c(O)c(Cl)cc(Cl)c1Cl` [Hexachlorophene], the “solubility in organic solvents” value in series [3] is on record as “soluble”. In addition, in [3] (water), the solubility in water result is “soluble”. Further, in series [2], the bacteriostatic/bactericidal nature entry is “bacteriostatic”; the “spectrum of antimicrobial activity” value is “active against staphylococci and other gram-positive bacteria”.
On to `Cn1sccc1=O` [Methylisothiazolone, 2-Methylisothiazolone Hydrochloride], for which the MIC (usually the lowest concentration that inhibits growth of the organism) in the series on Pseudomonas aeruginosa is 80 µg/mL; in the series with Candida albicans [5], 320 µg/mL; in the series on Escherichia coli, 40 µg/mL; in the series on Staphylococcus aureus, 80 µg/mL. In addition, in series [4], the photosensitivity result is “photosensitive”. The “solubility in acetic acid” value in series [3] (acetic acid (rifampin: acetic aqueous solutions)) is “not soluble”. For the same compound, the “solubility in formic acid” value in series [3] (formic acid) is recorded as “soluble”. For the same compound, in series [3], the “solubility in organic solvents” value is “soluble”. The bacteriostatic/bactericidal nature entry in series [2] is “bacteriostatic”. Besides, the “spectrum of antimicrobial activity” value in series [2] is on record as “broad spectrum antimicrobial activity”.
Turning to `CN(C)c1ccc(O)c2c1C[C@H]1C[C@H]3[C@H](N(C)C)C(O)=C(C(N)=O)C(=O)[C@@]3(O)C(O)=C1C2=O` [Minocycline], the “inhibition of protein synthesis” value in the series with protein synthesis is “inhibiting protein synthesis”. In [2], the bacteriostatic/bactericidal nature result is “primarily bacteriostatic”; the “spectrum of antimicrobial activity” value was “active against a wide range of gram-negative and gram-positive organisms”.
`CCOc1ccc2ccccc2c1C(=O)N[C@@H]1C(=O)N2[C@@H]1SC(C)(C)[C@@H]2C(=O)O` [Nafcillin]: the “spectrum of antimicrobial activity” value in series [2] is “effective against both penicillin-G-sensitive and penicillin-G-resistant strains of Staphylococcus aureus as well as against pneumococcus, beta-hemolytic streptococcus, and alpha streptococcus”.
For the compound `CO[C@H]1/C=C/O[C@@]2(C)Oc3c(C)c(O)c4c(O)c(c(/C=N/N5CCN(C)CC5)c(O)c4c3C2=O)NC(=O)/C(C)=C\C=C\[C@H](C)[C@H](O)[C@@H](C)[C@@H](O)[C@@H](C)[C@H](OC(C)=O)[C@@H]1C` [Rifampin], in series [2], the bacteriostatic/bactericidal nature result is given as “bactericidal”; the “spectrum of antimicrobial activity” value is “broad spectrum activity against a wide range of gram-positive and gram-negative bacteria”. Also, the “inhibition of bacterial DNA-dependent RNA polymerase” value in series [6] is on record as “inhibits bacterial DNA-dependent RNA polymerase activity”.
On to `Cc1ccc(C(C)C)c(O)c1` [Thymol, 5-methyl-2 isopropyl phenol], for which, in series [2], the bacteriostatic/bactericidal nature result was “bacteriostatic”; the “spectrum of antimicrobial activity” value is “broad spectrum antimicrobial activity against gram-positive bacteria (such as staphylococci and Enterococcus species), gram-negative bacteria (such as Escherichia coli and Pseudomonas aeruginosa) and Candida species”.
For `CC1=CCC(C(C)(C)O)CC1` (stereo not drawn) [α-Terpineol, α-α-4-trimethyl-3-cyclohexine-1-methanol], in series [2], the bacteriostatic/bactericidal nature result was “bacteriostatic”; the “spectrum of antimicrobial activity” value is “broad spectrum antimicrobial activity against gram-positive bacteria (such as staphylococci and Enterococcus species), gram-negative bacteria (such as Escherichia coli and Pseudomonas aeruginosa) and Candida species”.
